# Experiments:
# [1] = molecular target: T1, Gonadotropin-releasing hormone receptor (Homo sapiens, UniProt P30968); test: Antagonist activity at human GnRHR assessed as inhibition of calcium flux by IP3 assay; assay type: functional
# T1 sequence (P30968 whole entry): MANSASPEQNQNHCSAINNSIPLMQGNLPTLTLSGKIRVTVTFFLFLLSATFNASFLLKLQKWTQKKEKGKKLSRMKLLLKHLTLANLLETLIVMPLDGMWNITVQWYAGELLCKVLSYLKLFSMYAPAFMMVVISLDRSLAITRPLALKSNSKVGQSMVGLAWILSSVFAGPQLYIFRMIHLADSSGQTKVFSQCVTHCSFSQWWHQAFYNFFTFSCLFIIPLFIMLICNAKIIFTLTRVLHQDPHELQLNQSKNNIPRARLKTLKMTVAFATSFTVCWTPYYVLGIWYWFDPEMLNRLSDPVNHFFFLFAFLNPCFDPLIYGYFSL
# [2] = molecular target: T1, Gonadotropin-releasing hormone receptor; test: Binding affinity to human GnRHR
structure (smiles),measurement,setting,value
COc1cccc(-c2c(C)n(Cc3c(F)cccc3C(F)(F)F)c(=O)n(C[C@H](CO)NC3CCCC3)c2=O)c1Cl,IC50,[1],5.4 nM
same,Ki,[2],0.7 nM
"COc1cccc(-c2c(C)n(Cc3c(F)cccc3C(F)(F)F)c(=O)n(C[C@H](C)NC3CCCC3)c2=O)c1Cl (single isomer, unassigned; form 2)",IC50,[1],1.5 nM
same,Ki,[2],0.3 nM
COc1cccc(-c2c(C)n(Cc3c(F)cccc3C(F)(F)F)c(=O)n(C[C@H](C)NC3CCCC3)c2=O)c1,Ki,[2],4.5 nM
CC[C@H](Cn1c(=O)c(-c2cccc(OC)c2Cl)c(C)n(Cc2c(F)cccc2C(F)(F)F)c1=O)NC1CCCC1,Ki,[2],7.4 nM
CC[C@@H](Cn1c(=O)c(-c2cccc(OC)c2F)c(C)n(Cc2c(F)cccc2C(F)(F)F)c1=O)NC1CCCC1,Ki,[2],4.2 nM
"COc1cccc(-c2c(C)n(Cc3c(F)cccc3C(F)(F)F)c(=O)n(C[C@H](C)NC3CCCC3)c2=O)c1Cl (single isomer, unassigned; form 1)",IC50,[1],385 nM
same,Ki,[2],61 nM
"COc1cccc(-c2c(C)n(Cc3c(F)cccc3C(F)(F)F)c(=O)n(C[C@H](CO)NC3CCCC3)c2=O)c1Cl (single isomer, unassigned; atropisomer)",IC50,[1],2500 nM
same,Ki,[2],190 nM
COc1cccc(-c2c(C)n(Cc3c(F)cccc3C(F)(F)F)c(=O)n(C[C@H](C)NC3CCCC3)c2=O)c1F,IC50,[1],3.3 nM
same,Ki,[2],0.61 nM
CC[C@@H](Cn1c(=O)c(-c2cccc(OC)c2Cl)c(C)n(Cc2c(F)cccc2C(F)(F)F)c1=O)NC1CCCC1,Ki,[2],3.7 nM
CC[C@H](Cn1c(=O)c(-c2cccc(OC)c2F)c(C)n(Cc2c(F)cccc2C(F)(F)F)c1=O)NC1CCCC1,Ki,[2],20 nM
COc1cccc(-c2c(C)n(Cc3c(F)cccc3C(F)(F)F)c(=O)n(C[C@@H](C)NC3CCCC3)c2=O)c1F,Ki,[2],33 nM
COc1cccc(-c2c(C)n(Cc3c(F)cccc3F)c(=O)n(C[C@H](CO)NC3CCCC3)c2=O)c1F,Ki,[2],4.9 nM
COc1cccc(-c2c(C)n(Cc3c(F)cccc3C(F)(F)F)c(=O)n(C[C@H](CO)NC3CCCC3)c2=O)c1Cl (atropisomer R),IC50,[1],2.6 nM
same,Ki,[2],0.36 nM

# Reference: ChEMBL document CHEMBL1145650, “5-Aryluracils as potent GnRH antagonists-Characterization of atropisomers” (Bioorg Med Chem Lett, 2008)
